Results: patent publication US10449186B2, “Phenylethynyl-substituted benzenes and heterocycles for the treatment of cancer” (UNIVERSITY OF KENTUCKY RESEARCH FOUNDATION, priority 2017, dated 2019)
Where two headings read alike, the source gives them in different places.

Experiments:
[1] = tested on: LS174T colon cancer cells; assay: LS174T cell proliferation assay; type: cell-based; parameters: effects on LS174T colon cancer cell proliferation (Table 3): unit not given here; details: for inhibition at 1 µM / inhibition at 0.1 µM / inhibition at 10 µM / IC50 / inhibition at 0.03 µM: Homo sapiens, LS174T; for IC50: read-out: IC50, LS174T cell proliferation assay
Protocol: Cell proliferation assay. LS174T cells were grown in RPMI medium (Mediatech) supplemented with 5% fetal bovine serum and 1% penicillin/streptomycin. For cell proliferation assays, 3×10^4 cells/well growing in 12-well plates were treated with DMSO or inhibitors. The cell numbers and viability were analyzed by Vi-Cell Cell Viability Analyzer after 4 days. The IC50 values were calculated with GraphPad Prim 5.

[2] = Water solubility
[3] = tested on: p21^Wif1/Cip1; assay: Western blot, p21^Wif1/Cip1 expression in LS174T cells; type: cell-based; details: 300 nM
Protocol: (§1) FIG. 2A is a western blot showing the effects of 4-((2,6-difluorophenyl)ethynyl)-N,N-dimethylaniline (2), 4-((2,6-difluorophenyl)ethynyl)-N,N-dimethylisoquinolin-1-amine (5nn), and 4-((2,6-difluorophenyl)ethynyl)-N-methylisoquinolin-1-amine (5oo) on the expression of […] and p21^Wif1/Cip1 in LS174T cells at 300 nM concentrations.
(§2) Western blotting. Western blotting was performed as described previously. The following antibodies were used: anti-c-myc (Epitomics, 1472-1), anti-p21^Wif1/Cip1 (Cell Signaling, 2947), anti-β-tubulin (DSHB, E7).

[4] = tested on: cyclin D1; assay: Western blot, cyclin D1 expression in LS174T cells; type: cell-based; details: 300 nM
Protocol: as §1, §2

[5] = tested on: LS174T colon cancer cells; details: data from Sviripa et al. 2014, cited from earlier work; for inhibition of proliferation (%) of colon cancer LS174T cells: Table 1; for inhibition of cell proliferation (%) of colon cancer LS174T cells: Table 2
[6] = read-out: inhibition of LS174T colon cancer cell proliferation
[7] = read-out: inhibition of cell proliferation (%) of colon cancer LS174T cells
[8] = Table 2, 100 nM, read-out: inhibition of cell proliferation (%) of colon cancer LS174T cells
[9] = Table 2, 1 μM, read-out: inhibition of cell proliferation (%) of colon cancer LS174T cells
[10] = Table 2, 10 μM, read-out: inhibition of cell proliferation (%) of colon cancer LS174T cells
[11] = 1 μM, read-out: inhibition of LS174T colon cancer cell proliferation

| Compound | inhibition at 1 µM [1, 7] [%] | inhibition at 10 µM [1, 7] [%] | melting point [°C] | inhibition at 1 µM [1, 9] [%] | inhibition at 10 µM [1, 10] [%] | also measured |
| --- | --- | --- | --- | --- | --- | --- |
| CN(C)c1ncc(C#Cc2c(F)cccc2F)c2ncccc12 [Compound 5qq, 8-((2,6-Difluorophenyl)ethynyl)-N,N-dimethyl-1,6-naphthyridin-5-amine] | 87.9 ± 0.8 | 85.2 ± 1 | 149 to 150 | – | – | inhibition at 1 µM [1, 6]: > 75%; inhibition at 0.1 µM [1, 7]: 59.5 ± 3.5%; water solubility ([2]; hydrochloride salts): completely water-soluble |
| CN1CCN(c2ncc(C#Cc3c(F)cccc3F)c3ccccc23)CC1 [Compound 5pp, 4-((2,6-Difluorophenyl)ethynyl)-1-(4-methylpiperazin-1-yl)isoquinoline] | 23.2 ± 9.4 | 100 | – | – | – | water solubility ([2]; hydrochloride salts): completely water-soluble |
| CNc1ncc(C#Cc2c(F)cccc2F)c2ccccc12 [Compound 5oo, 4-((2,6-Difluorophenyl)ethynyl)-N-methylisoquinolin-1-amine] | 99.8 ± 0.2 | 98.9 ± 1 | 118 to 120 | – | – | p21^Wif1/Cip1 expression (western blot) [3]: induced p21^Wif1/Cip1; IC50 [1]: 4.2 ± 0.2 nM; inhibition at 0.03 µM [1, 7]: 94.5 ± 1.5%; inhibition at 0.1 µM [1, 7]: 99.5 ± 0.5%; cyclin D1 expression (western blot) [4]: inhibited cyclin D1 expression |
| Nc1ccnc2ccc(C#Cc3c(F)cccc3F)cc12 [Compound 5cc, 6-((2,6-Difluorophenyl)ethynyl)quinolin-4-amine] | – | – | 220 to 222 | 66.2 ± 3.1 | 93.9 ± 0.4 | inhibition at 0.1 µM [1, 8]: 0% |
| Fc1cccc(F)c1C#Cc1cccc2cnccc12 [Compound 5ii, 5-((2,6-Difluorophenyl)ethynyl)isoquinoline] | – | – | 115 to 117 | 64.2 ± 6.1 | 93.6 ± 0.5 | – |
| Fc1cncc(F)c1C#Cc1ccccc1 [Compound 7a, 3,5-Difluoro-4-(phenylethynyl)pyridine] | – | – | 52 to 54 | – | – | effects on LS174T colon cancer cell proliferation (Table 3) ([1]; 30 nM): 5.3; effects on LS174T colon cancer cell proliferation (Table 3) ([1]; 100 nM): 24.7; effects on LS174T colon cancer cell proliferation (Table 3) ([1]; 300 nM): 12.2 |
| CN(C)c1cnc(C#Cc2c(F)cccc2F)cn1 [Compound 5d, 5-((2,6-Difluorophenyl)ethynyl)-N,N-dimethylpyrazin-2-amine] | – | – | 137 to 138 | 22.9 ± 9.8 | 91.6 ± 3 | – |
| Cn1ncc2ccc(C#Cc3c(F)cccc3F)cc21 [Compound 5k, 6-((2,6-Difluorophenyl)ethynyl)-1-methyl-1H-indazole] | – | – | 117 to 119 | 85.9 ± 5.4 | 98.1 ± 0.4 | inhibition at 1 µM [1, 11]: > 75%; inhibition at 0.1 µM [1, 8]: 0% |
| Fc1cccc(F)c1C#Cc1cnc2ccccc2c1Cl [Compound 5q, 4-Chloro-3-((2,6-difluorophenyl)ethynyl)quinoline] | – | – | 140 to 142 | 51.5 ± 20.4 | 80.4 ± 13.7 | inhibition at 0.1 µM [1, 8]: 0% |
| Fc1cccc(F)c1C#Cc1ccc2cccnc2c1 [Compound 5x, 7-((2,6-Difluorophenyl)ethynyl)quinoline] | 90.7 ± 0.6 | 99.4 ± 0.3 | 123 to 125 | – | – | inhibition at 1 µM [1, 6]: > 75%; inhibition at 0.1 µM [1, 7]: 2.9 ± 14% |
| Fc1cccc(F)c1C#Cc1cccc2ncccc12 [Compound 5v, 5-((2,6-Difluorophenyl)ethynyl)quinoline] | 43.1 ± 11.2 | 94.7 ± 2.9 | 98 to 100 | – | – | – |
| Fc1cccc(F)c1C#Cc1cccc2cccnc12 [Compound 5y, 8-((2,6-Difluorophenyl)ethynyl)quinoline] | 47.6 ± 3.5 | 92.7 ± 2.9 | 108 to 110 | – | – | – |
| O=C1CCCCN1c1ccc(C#Cc2c(F)cccc2F)cc1 [Compound 4a, 1-(4-((2,6-Difluorophenyl)ethynyl)phenyl)piperidin-2-one] | – | – | 148 to 150 | – | – | inhibition at 1 µM ([1]; Table 1, 1 μM, read-out: inhibition of proliferation (%) of colon cancer LS174T cells): 6.4%; inhibition at 10 µM ([1]; Table 1, 10 μM, read-out: inhibition of proliferation (%) of colon cancer LS174T cells): 68.1% |
| Fc1cccc(F)c1C#Cc1cncc2ccccc12 [Compound 5hh, 4-((2,6-Difluorophenyl)ethynyl)isoquinoline] | – | – | 102 to 104 | 16.5 ± 2.1 | 87.9 ± 1 | – |
| Fc1cccc(F)c1C#Cc1ccnc2cc(Cl)ccc12 [Compound 5u, 7-Chloro-4-((2,6-difluorophenyl)ethynyl)quinoline] | 36 ± 0.4 | 74.3 ± 0.2 | 130 to 132 | – | – | – |
| Fc1cccc(F)c1C#Cc1nccc2ccccc12 [Compound 5gg, 1-((2,6-Difluorophenyl)ethynyl)isoquinoline] | – | – | 120 to 122 | 35.4 ± 15 | 96.7 ± 0.2 | – |
| Fc1cccc(F)c1C#Cc1ccc2ncccc2c1 [Compound 5w, 6-((2,6-Difluorophenyl)ethynyl)quinoline] | 11 ± 30.4 | 80.1 ± 1 | 91 to 93 | – | – | – |
| CN(C)c1ccc(C#Cc2c(F)cccc2F)cn1 [Compound 5b, 5-((2,6-Difluorophenyl)ethynyl)-N,N-dimethylpyridin-2-amine] | – | – | 110 to 112 | 77.9 ± 7 | 83.6 ± 7.8 | inhibition at 1 µM [1, 11]: > 75%; inhibition at 0.1 µM [1, 8]: 0% |
| Fc1cccc(F)c1C#Cc1ccc2cn[nH]c2c1 [Compound 5i, 6-((2,6-Difluorophenyl)ethynyl)-1H-indazole] | 81.5 ± 2.9 | 97 ± 1.1 | 192 to 194 | – | – | inhibition at 1 µM [1, 6]: > 75% |
| CN(C)c1ncc(C#Cc2c(F)cccc2F)c2ccccc12 [Compound 5nn, 4-((2,6-difluorophenyl)ethynyl)-N,N-dimethylisoquinolin-1-amine] | 99.5 ± 0.1 | 97.6 ± 1.5 | 122 to 124 | – | – | p21^Wif1/Cip1 expression (western blot) [3]: induced p21^Wif1/Cip1; IC50 [1]: 11.8 ± 1.5 nM; inhibition at 0.03 µM [1, 7]: 86 ± 2%; inhibition at 0.1 µM [1, 7]: 81.7 ± 2.1%; cyclin D1 expression (western blot) [4]: inhibited cyclin D1 expression |
| CN(C)c1ccc(C#Cc2c(F)cccc2F)cc1 [Compound 2, 4-((2,6-difluorophenyl)ethynyl)-N,N-dimethylaniline] | – | – | – | – | – | p21^Wif1/Cip1 expression (western blot) [3]: induced p21^Wif1/Cip1; IC50 [1]: 25.1 ± 1.3 nM; water solubility ([2]; parent compound): sparingly water-soluble; inhibition of proliferation (%) of colon cancer LS174T cells ([5]; 100 nM): 85.2%; inhibition of proliferation (%) of colon cancer LS174T cells ([5]; 1 μM): 99.5%; inhibition of cell proliferation (%) of colon cancer LS174T cells ([5]; 30 nM): 57 ± 1.2%; inhibition of cell proliferation (%) of colon cancer LS174T cells ([5]; 100 nM): 85.2 ± 0.5%; inhibition of cell proliferation (%) of colon cancer LS174T cells ([5]; 1 μM): 99.5 ± 0.1%; cyclin D1 expression (western blot) [4]: inhibited cyclin D1 expression |
| Fc1cccc(F)c1C#Cc1ccnc2ccccc12 [Compound 5o, 4-((2,6-Difluorophenyl)ethynyl)quinoline] | 15.4 ± 9.1 | 59 ± 7.5 | 101 to 102 | – | – | – |
